Where two headings read alike, the source gives them in different places.
Target: human recombinant ATX (Homo sapiens, UniProt Q13822)
Experiment: Autotaxin (ATX) activity Quanta Red assay
Assay type: biochemical
Summary of the method: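 Recombinant human ATX reaction stopped after 2 h with Quanta Red stop solution; fluorescence read at […]. Controls with DMSO, with and without ATX; IC50 in duplicate.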

[1] = read-out: Activity (ATX activity, Quanta Red assay; IC50)
[2] = Table 2: additional compounds tested for ATX activity (Quanta Red Assay), read-out: Activity

Which IC50 [1] does the source give for `C[C@H](NC(=O)CSc1nc2cccnc2n1Cc1ccc(OC(F)(F)F)cc1)c1ccc(Cl)cc1` [Example 144, N-[(S)-1-(4-Chloro-phenyl)-ethyl]-2-[3-(4-trifluoromethoxy-benzyl)-3H-imidazo[4,5-b]pyridin-2-ylsulfanyl]-acetamide] here?
The IC50 was 2 nM.

How did the IC50 [1] turn out when `C[C@H](NC(=O)CCc1nc2cccnc2n1Cc1ccc(F)cc1)c1ccc(F)cc1` [Example 88, 3-[3-(4-Fluoro-benzyl)-3H-imidazo[4,5-b]pyridin-2-yl]-N-[(S)-1-(4-fluoro-phenyl)-ethyl]-propionamide] was run?
Its IC50 is 6 nM.

Which IC50 [1] does the source give for `CC[C@H](NC(=O)CCc1nc2cccnc2n1Cc1ccc(F)c(F)c1)c1ccccc1` [Example 89, 3-[3-(3,4-Difluoro-benzyl)-3H-imidazo[4,5-b]pyridin-2-yl]-N-((S)-1-phenyl-propyl)-propionamide] here?
The IC50 was 8 nM.

How did the IC50 [1] turn out when `C[C@H](NC(=O)CCc1nc2cccnc2n1Cc1ccc(F)c(F)c1)c1ccc(F)cc1` [Example 95, 3-[3-(3,4-Difluoro-benzyl)-3H-imidazo[4,5-b]pyridin-2-yl]-N-[(S)-1-(4-fluoro-phenyl)-ethyl]-propionamide] was run?
The IC50 was 26 nM.

For `O=C(CCc1nc2cccnc2n1Cc1ccc(C(F)(F)F)cc1)N[C@H](Cc1ccccc1)C(=O)O` [Example 196, (R)-3-Phenyl-2-{3-[3-(4-trifluoromethyl-benzyl)-3H-imidazo[4,5-b]pyridin-2-yl]-propionylamino}-propionic acid], which IC50 [1] is on record?
The IC50 was 2 nM.

With `O=C(CCc1nc2cccnc2n1Cc1cccs1)NCc1ccc(F)cc1` [Example 224, N-(4-Fluoro-benzyl)-3-(3-thiophen-2-ylmethyl-3H-imidazo[4,5-b]pyridin-2-yl)-propionamide] as the compound, how does the IC50 [2] read?
The IC50 was 685 nM.

`COc1ccc(Cn2c(CCC(=O)NCc3ccccc3F)nc3cccnc32)cc1` [Example 114, N-(2-Fluoro-benzyl)-3-[3-(4-methoxy-benzyl)-3H-imidazo[4,5-b]pyridin-2-yl]-propionamide] was tested. Which IC50 [1] did it give?
Its IC50 is 301 nM.

With `O=C(CCc1nc2cccnc2n1Cc1ccc(OC(F)(F)F)cc1)N[C@@H](CS)c1ccccc1` [Example 209, N—((R)-2-mercapto-1-phenyl-ethyl)-3-[3-(4-trifluoromethoxy-benzyl)-3H-imidazo[4,5-b]pyridin-2-yl]-propionamide] as the compound, how does the IC50 [1] read?
The IC50 was 3 nM.

With `O=C(CCc1nc2cccnc2n1Cc1ccc(OC(F)(F)F)cc1)NCC1CCCCC1` [Example 42, N-Cyclohexylmethyl-3-[3-(4-trifluoromethoxy-benzyl)-3H-imidazo[4,5-b]pyridin-2-yl]-propionamide] as the compound, how does the IC50 [1] read?
The IC50 was 11 nM.

For `C[C@H](NC(=O)CCc1nc2cccnc2n1Cc1ccc(F)c(F)c1)c1ccc(N2CCOCC2)cc1` [Example 45, 3-[3-(3,4-Difluoro-benzyl)-3H-imidazo[4,5-b]pyridin-2-yl]-N-[(S)-1-(4-morpholin-4-yl-phenyl)-ethyl]-propionamide], which IC50 [1] is on record?
Its IC50 is 17 nM.

`C[C@H](NC(=O)CCc1nc2cccnc2n1Cc1ccc(F)cc1)c1ccc(N2CCCCCC2)cc1` [Example 178, N-[(S)-1-(4-Azepan-1-yl-phenyl)-ethyl]-3-[3-(4-fluoro-benzyl)-3H-imidazo[4,5-b]pyridin-2-yl]-propionamide] was tested. Which IC50 [1] did it give?
The IC50 was 3 nM.

For `C[C@H](NC(=O)CCc1nc2cccnc2n1Cc1ccc(OC(F)(F)F)cc1)c1ccc(NC2CCN(C)CC2)cc1` [Example 173, N-{(S)-1-[4-(1-Methyl-piperidin-4-ylamino)-phenyl]-ethyl}-3-[3-(4-trifluoromethoxy-benzyl)-3H-imidazo[4,5-b]pyridin-2-yl]-propionamide], which IC50 [1] is on record?
The IC50 was 3 nM.

With `C[C@H](NC(=O)CCc1cc2cccnc2n1Cc1ccc(F)cc1)c1ccc(F)cc1` [Example 140, 3-[1-(4-Fluoro-benzyl)-1H-pyrrolo[2,3-b]pyridin-2-yl]-N-[(S)-1-(4-fluoro-phenyl)-ethyl]-propionamide] as the compound, how does the IC50 [1] read?
Its IC50 is 13 nM.

How did the IC50 [1] turn out when `C[C@H](NC(=O)CCc1nc2cccnc2n1Cc1ccc(F)cc1)c1ccc(N2CCCC2)cc1` [Example 180, 3-[3-(4-Fluoro-benzyl)-3H-imidazo[4,5-b]pyridin-2-yl]-N-[(S)-1-(4-pyrrolidin-1-yl-phenyl)-ethyl]-propionamide] was run?
The IC50 was 6 nM.

With `C[C@H](NC(=O)NCc1nc2cccnc2n1Cc1ccc(F)c(F)c1)c1ccc(Br)cc1` [Example 158, 1-[(S)-1-(4-Bromo-phenyl)-ethyl]-3-[3-(3,4-difluoro-benzyl)-3H-imidazo[4,5-b]pyridin-2-ylmethyl]-urea] as the compound, how does the IC50 [1] read?
Its IC50 is 17 nM.

How did the IC50 [2] turn out when `COc1ccc(Cn2c(CCC(=O)NCc3ccc(C)cc3)nc3cccnc32)cc1` [Example 220, 3-[3-(4-Methoxy-benzyl)-3H-imidazo[4,5-b]pyridin-2-yl]-N-(4-methyl-benzyl)-propionamide] was run?
The IC50 was 125 nM.

How did the IC50 [1] turn out when `O=C(CCc1nc2cccnc2n1Cc1ccccc1)NCC1CCCCC1` [Example 111, 3-(3-Benzyl-3H-imidazo[4,5-b]pyridin-2-yl)-N-cyclohexylmethyl-propionamide] was run?
Its IC50 is 406 nM.

`Cc1ccccc1CNC(=O)CCc1nc2cccnc2n1Cc1ccccc1` [Example 5, 3-(3-Benzyl-3H-imidazo[4,5-b]pyridin-2-yl)-N-(2-methyl-benzyl)-propionamide] was tested. Which IC50 [1] did it give?
The IC50 was 854 nM.

`C[C@H](NC(=O)CCc1nc2cccnc2n1Cc1ccc(F)cc1)c1ccccc1` [Example 87, 3-[3-(4-Fluoro-benzyl)-3H-imidazo[4,5-b]pyridin-2-yl]-N-((S)-1-phenyl-ethyl)-propionamide] was tested. Which IC50 [1] did it give?
Its IC50 is 6 nM.

For `COc1ccc(Cn2c(CCC(=O)NCc3cccc(Cl)c3)nc3cccnc32)cc1` [Example 231, N-(3-Chloro-benzyl)-3-[3-(4-methoxy-benzyl)-3H-imidazo[4,5-b]pyridin-2-yl]-propionamide], which IC50 [2] is on record?
Its IC50 is 200 nM.

How did the IC50 [1] turn out when `O=C(CCc1nc2ccncc2n1Cc1ccc(OC(F)(F)F)cc1)NCc1ccc(Cl)cc1` [Example 129, N-(4-Chloro-benzyl)-3-[3-(4-trifluoromethoxy-benzyl)-3H-imidazo[4,5-c]pyridin-2-yl]-propionamide] was run?
The IC50 was 20 nM.

`NC[C@H](NC(=O)CCc1nc2cccnc2n1Cc1ccc(OC(F)(F)F)cc1)c1ccccc1` [Example 210, N—((R)-2-amino-1-phenyl-ethyl)-3-[3-(4-trifluoromethoxy-benzyl)-3H-imidazo[4,5-b]pyridin-2-yl]-propionamide] was tested. Which IC50 [1] did it give?
Its IC50 is 3 nM.

Which IC50 [1] does the source give for `O=C(CCc1nc2cccnc2n1Cc1ccc(OC(F)(F)F)cc1)NC(CO)c1ccc(C(F)(F)F)cc1` (stereo not shown) [Example 23, N-[2-Hydroxy-1-(4-trifluoromethyl-phenyl)-ethyl]-3-[3-(4-trifluoromethoxy-benzyl)-3H-imidazo[4,5-b]pyridin-2-yl]-propionamide] here?
Its IC50 is 4 nM.

`C[C@H](NC(=O)CSc1nc2cccnc2n1Cc1ccc(F)cc1)c1ccc(N2CCOCC2)cc1` [Example 147, 2-[3-(4-Fluoro-benzyl)-3H-imidazo[4,5-b]pyridin-2-ylsulfanyl]-N-[(S)-1-(4-morpholin-4-yl-phenyl)-ethyl]-acetamide] was tested. Which IC50 [1] did it give?
The IC50 was 3 nM.

Which IC50 [1] does the source give for `CC(C)(C)OC(=O)N1CCC(CNC(=O)CCc2nc3cccnc3n2Cc2ccc(OC(F)(F)F)cc2)CC1` [Example 51, 4-({3-[3-(4-Trifluoromethoxy-benzyl)-3H-imidazo[4,5-b]pyridin-2-yl]-propionylamino}-methyl)-piperidine-1-carboxylic acid tert-butyl ester] here?
Its IC50 is 22 nM.

For `O=C(CCc1nc2cccnc2n1Cc1ccc(OC(F)(F)F)cc1)NCc1ccc(OC(F)(F)F)cc1` [Example 22, N-(4-Trifluoromethoxy-benzyl)-3-[3-(4-trifluoromethoxy-benzyl)-3H-imidazo[4,5-b]pyridin-2-yl]-propionamide], which IC50 [1] is on record?
The IC50 was 4 nM.

Which IC50 [1] does the source give for `C[C@H](NC(=O)CCc1nc2cccnc2n1Cc1ccc(OC(F)(F)F)cc1)c1ccc(N2CC[C@H](N(C)C)C2)cc1` [Example 169, N-{(S)-1-[4-((S)-3-Dimethylamino-pyrrolidin-1-yl)-phenyl]-ethyl}-3-[3-(4-trifluoromethoxy-benzyl)-3H-imidazo[4,5-b]pyridin-2-yl]-propionamide] here?
Its IC50 is 1 nM.

How did the IC50 [1] turn out when `O=C(CCc1nc2cccnc2n1Cc1ccc(OC(F)F)cc1)N[C@H](Cc1ccccc1)C(=O)O` [Example 197, (R)-2-{3-[3-(4-Difluoromethoxy-benzyl)-3H-imidazo[4,5-b]pyridin-2-yl]-propionylamino}-3-phenyl-propionic acid] was run?
The IC50 was 5 nM.

`O=C(CCc1nc2ccncc2n1Cc1ccc(OC(F)(F)F)cc1)N[C@@H](CO)c1ccccc1` [Example 123, N-((R)-2-Hydroxy-1-phenyl-ethyl)-3-[3-(4-trifluoromethoxy-benzyl)-3H-imidazo[4,5-c]pyridin-2-yl]-propionamide] was tested. Which IC50 [1] did it give?
Its IC50 is 3 nM.

For `C[C@H](NC(=O)CS(=O)(=O)c1nc2cccnc2n1Cc1ccc(OC(F)(F)F)cc1)c1ccc(F)cc1` [Example 150, N—[(S)-1-(4-fluoro-phenyl)-ethyl]-2-[3-(4-trifluoromethoxy-benzyl)-3H-imidazo[4,5-b]pyridine-2-sulfonyl]-acetamide], which IC50 (human recombinant ATX 0.8 μg/mL, 2 hours at room temperature, IC50 determined in duplicate, read-out: Activity (ATX activity, Quanta Red assay; IC50)) is on record?
The IC50 was 2880 nM.

With `O=C(CCc1nc2cccnc2n1Cc1ccc(OC(F)(F)F)cc1)N[C@@H](C(=O)O)C1CCCCC1` [Example 194, (R)-cyclohexyl-{3-[3-(4-trifluoromethoxy-benzyl)-3H-imidazo[4,5-b]pyridin-2-yl]-propionylamino}-acetic Acid] as the compound, how does the IC50 [1] read?
The IC50 was 1 nM.

`C[C@H](NC(=O)CCc1nc2cccnc2n1Cc1ccc(F)c(F)c1)c1ccc(N2CCNCC2)cc1` [Example 193, 3-[3-(3,4-Difluoro-benzyl)-3H-imidazo[4,5-b]pyridin-2-yl]-N-[(S)-1-(4-piperazin-1-yl-phenyl)-ethyl]-propionamide] was tested. Which IC50 [1] did it give?
Its IC50 is 83 nM.

For `C[C@H](NC(=O)OCc1nc2cccnc2n1Cc1ccc(F)cc1)c1ccc(F)cc1` [Example 166, [(S)-1-(4-fluoro-phenyl)-ethyl]-carbamic acid 3-(4-fluoro-benzyl)-3H-imidazo[4,5-b]pyridin-2-ylmethyl Ester], which IC50 [1] is on record?
Its IC50 is 336 nM.

Which IC50 [2] does the source give for `COc1ccc(Cn2c(CCC(=O)NCCc3cccc(C)c3)nc3cccnc32)cc1` [Example 229, 3-[3-(4-Methoxy-benzyl)-3H-imidazo[4,5-b]pyridin-2-yl]-N-(2-m-tolyl-ethyl)-propionamide] here?
Its IC50 is 466 nM.

Source: patent US11453666B2, “Autotaxin inhibitory compounds” (Cancer Research Technology Limited, priority 2015, dated 2022)
